Data reported in patent publication US20190328691A1, “ANTIBIOTIC THERAPY” (Boulos & Cooper Pharmaceuticals Pty Ltd, priority 2015, published 2019).
Like-named read-outs stand apart in the source and are kept apart here.

How the values were obtained:
[1] = test system: Staphylococcus aureus (ATCC 29213); assay: Checkerboard combination / MIC assay with S. aureus ATCC 29213; type: cell-based; settings: S. aureus ATCC 29213; for MIC: Staphylococcus aureus, read-out: MIC of antibiotic alone
Procedure, shortened: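 CLSI broth microdilution checkerboard in CAMHB, final inoculum 5×10^5 CFU/mL, 2% DMSO. Ramizol or Chlopam (11-point 2-fold) crossed with commercial antibiotics (7-point), each starting at 4× MIC; synergy assessed by FIC index (sum of MIC-in-combination/MIC-alone ratios; ≤0.5 synergy, >4 antagonism).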

[2] = test system: Staphylococcus aureus (BAA-1717); assay: Checkerboard combination / MIC assay with S. aureus BAA-1717 (MRSA); type: cell-based; settings: for Effect of individual antibiotic combinations: S. aureus BAA-1717
Procedure, shortened: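 CLSI broth microdilution checkerboard in CAMHB (5×10^5 CFU/mL, 2% DMSO final). Ramizol or Chlopam was tested in 11-point two-fold series against 7-point antibiotic titrations, starting at 4× MIC.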

C/C(=C\C(=O)OCCCCCCCCC(=O)O)C[C@@H]1OC[C@H](C[C@@H]2O[C@H]2[C@@H](C)[C@H](C)O)[C@@H](O)[C@H]1O [Mupirocin]
FICI of combination with Chlopam ([1]; Chlopam 0.003906 μg/mL + labelled antibiotic at MIC of same cell): 1.0 | MIC of antibiotic in combination with Chlopam ([1]; Chlopam 0.003906 μg/mL): 0.5 µg/mL | FICI of combination with Chlopam ([1]; Chlopam 0.0078125 μg/mL + labelled antibiotic at MIC of same cell): 1.0 | MIC of antibiotic in combination with Chlopam ([1]; Chlopam 0.0078125 μg/mL): 0.5 µg/mL | FICI of combination with Chlopam ([1]; Chlopam 0.015625 μg/mL + labelled antibiotic at MIC of same cell): 1.0 | MIC of antibiotic in combination with Chlopam ([1]; Chlopam 0.015625 μg/mL): 0.5 µg/mL | FICI of combination with Chlopam ([1]; Chlopam 0.25 μg/mL + labelled antibiotic at MIC of same cell): 1.0 | MIC of antibiotic in combination with Chlopam ([1]; Chlopam 0.25 μg/mL): 0.25 µg/mL | Effect of individual antibiotic combinations ([1]; Chlopam and mupirocin: 0.003901 and 0.5, 0.0078125 and 0.5, 0.015625 and 0.5, 0.25 and 0.25 μg/mL): additive effect | FICI of combination with Ramizol ([1]; Ramizol 0.015625 μg/mL + labelled antibiotic at MIC of same cell): 1.0 | MIC of antibiotic in combination with Ramizol ([1]; Ramizol 0.015625 μg/mL): 0.5 µg/mL | FICI of combination with Ramizol ([1]; Ramizol 0.03125 μg/mL + labelled antibiotic at MIC of same cell): 1.0 | MIC of antibiotic in combination with Ramizol ([1]; Ramizol 0.03125 μg/mL): 0.5 µg/mL | FICI of combination with Ramizol ([1]; Ramizol 0.0625 μg/mL + labelled antibiotic at MIC of same cell): 1.0 | MIC of antibiotic in combination with Ramizol ([1]; Ramizol 0.0625 μg/mL): 0.5 µg/mL | FICI of combination with Ramizol ([1]; Ramizol 0.125 μg/mL + labelled antibiotic at MIC of same cell): 1.0 | MIC of antibiotic in combination with Ramizol ([1]; Ramizol 0.125 μg/mL): 0.5 µg/mL | FICI of combination with Ramizol ([1]; Ramizol 0.25 μg/mL + labelled antibiotic at MIC of same cell): 1.0 | MIC of antibiotic in combination with Ramizol ([1]; Ramizol 0.25 μg/mL): 0.5 µg/mL | Effect of individual antibiotic combinations ([1]; Ramizol and mupirocin: 0.015625 and 0.5, 0.03125 and 0.5, 0.0625 and 0.5, 0.125 and 0.5, 0.25 and 0.5 μg/mL): additive effect | MIC ([1]; ATCC29213, Table 4, checkerboard series with Chlopam): 0.5 µg/mL | MIC ([1]; ATCC29213, Table 7, checkerboard series with Ramizol): 0.5 µg/mL | mean FICI of combination with Chlopam ([1]; labelled antibiotic + Chlopam, mean of all pairwise combinations): 1.1 | mean FICI of combination with Ramizol ([1]; labelled antibiotic + Ramizol, mean of all pairwise combinations): 1.1 | FICI of combination with Chlopam ([2]; Chlopam 0.001953 μg/mL + labelled antibiotic at MIC of same cell, S. aureus ATCC BAA-1717): 1.0 | MIC of antibiotic in combination with Chlopam ([2]; Chlopam 0.001953 μg/mL, S. aureus ATCC BAA-1717): 0.5 µg/mL | FICI of combination with Chlopam ([2]; Chlopam 0.003906 μg/mL + labelled antibiotic at MIC of same cell, S. aureus ATCC BAA-1717): 1.0 | MIC of antibiotic in combination with Chlopam ([2]; Chlopam 0.003906 μg/mL, S. aureus ATCC BAA-1717): 0.5 µg/mL | FICI of combination with Chlopam ([2]; Chlopam 0.0078125 μg/mL + labelled antibiotic at MIC of same cell, S. aureus ATCC BAA-1717): 1.0 | MIC of antibiotic in combination with Chlopam ([2]; Chlopam 0.0078125 μg/mL, S. aureus ATCC BAA-1717): 0.5 µg/mL | FICI of combination with Chlopam ([2]; Chlopam 0.015625 μg/mL + labelled antibiotic at MIC of same cell, S. aureus ATCC BAA-1717): 1.0 | MIC of antibiotic in combination with Chlopam ([2]; Chlopam 0.015625 μg/mL, S. aureus ATCC BAA-1717): 0.5 µg/mL | FICI of combination with Chlopam ([2]; Chlopam 0.5 μg/mL + labelled antibiotic at MIC of same line, S. aureus ATCC BAA-1717): 1.0 | MIC of antibiotic in combination with Chlopam ([2]; Chlopam 0.5 μg/mL, S. aureus ATCC BAA-1717): 0.016 µg/mL | Effect of individual antibiotic combinations ([2]; Chlopam and mupirocin: 0.001953 and 0.5, 0.003901 and 0.5, 0.0078125 and 0.5, 0.015625 and 0.5, 0.5 and 0.016 μg/mL): additive effect | FICI of combination with Ramizol ([2]; Ramizol 0.015625 μg/mL + labelled antibiotic at MIC of same cell, S. aureus ATCC BAA-1717): 1.0 | MIC of antibiotic in combination with Ramizol ([2]; Ramizol 0.015625 μg/mL, S. aureus ATCC BAA-1717): 0.5 µg/mL | FICI of combination with Ramizol ([2]; Ramizol 0.03125 μg/mL + labelled antibiotic at MIC of same cell, S. aureus ATCC BAA-1717): 1.0 | MIC of antibiotic in combination with Ramizol ([2]; Ramizol 0.03125 μg/mL, S. aureus ATCC BAA-1717): 0.5 µg/mL | FICI of combination with Ramizol ([2]; Ramizol 0.0625 μg/mL + labelled antibiotic at MIC of same cell, S. aureus ATCC BAA-1717): 1.0 | MIC of antibiotic in combination with Ramizol ([2]; Ramizol 0.0625 μg/mL, S. aureus ATCC BAA-1717): 0.5 µg/mL | FICI of combination with Ramizol ([2]; Ramizol 0.125 μg/mL + labelled antibiotic at MIC of same line, S. aureus ATCC BAA-1717): 1.0 | MIC of antibiotic in combination with Ramizol ([2]; Ramizol 0.125 μg/mL, S. aureus ATCC BAA-1717): 0.5 µg/mL | FICI of combination with Ramizol ([2]; Ramizol 4 μg/mL + labelled antibiotic at MIC of same cell, S. aureus ATCC BAA-1717): 1.0 | MIC of antibiotic in combination with Ramizol ([2]; Ramizol 4 μg/mL, S. aureus ATCC BAA-1717): 0.016 µg/mL | Effect of individual antibiotic combinations ([2]; Ramizol and mupirocin: 0.015625 and 0.5, 0.03125 and 0.5, 0.0625 and 0.5, 0.125 and 0.5, 4 and 0.016 μg/mL): additive effect | MIC ([2]; Staphylococcus aureus, ATCC BAA-1717 / BAA-1717, Table 4, checkerboard series with Chlopam, S. aureus ATCC BAA-1717, read-out: MIC of antibiotic alone): 0.5 µg/mL | mean FICI of combination with Chlopam ([2]; labelled antibiotic + Chlopam, mean of all pairwise combinations, S. aureus ATCC BAA-1717): 1.2 | mean FICI of combination with Ramizol ([2]; labelled antibiotic + Ramizol, mean of all pairwise combinations, S. aureus ATCC BAA-1717): (1.2)
